Data on 22 molecules can be found in patent US7582786B2, “Synthetic catalytic free radical scavengers useful as antioxidants for prevention and therapy of disease” (Eukarion Inc., priority 1996, dated 2009).

Experiment [1] in a line: SOD activity, xanthine/xanthine oxidase with cytochrome C as acceptor (Example 2). Format: biochemical. Conditions: relative to C7 (C7 = 100). As for the experimental part: Superoxide dismutase (SOD) activity was assayed by following the inhibition of the reduction of an electron acceptor molecule in the presence of the free-radical generating system xanthine/xanthine oxidase (McCord et al. (1973) Superoxide and Superoxide Dismutase in “Oxidases and Related Redox Systems, vol. I, King et al. eds., University Park press, Baltimore, pp. 51-76). The assay mixture consisted of 50 mM sodium phosphate, pH 7.8, 120 μM xanthine, 0.2 units/ml xanthine oxidase, with acceptor molecule and salen manganese compound, as indicated. Assays were conducted at 27±0.2° C. using a water-jacketed cell holder in a Beckman DU7400 spectrophotometer. In most cases, oxidized cytochrome c, at 0.13 mg/ml, was employed as acceptor and its reduction was monitored spectrophotometrically at 550 nm. In some experiments, nitroblue tetrazolium (NBT), at 80 μM, was substituted for cytochrome c as the acceptor. NBT reduction was also monitored at 550 nm. An estimated extinction coefficient for NBT reduction, 20,800 M^−1cm^−1, determined empirically by exhaustive reduction of NBT in the reaction mixture described above, was employed where indicated. […] Conversion of xanthine to urate was calculated using ε290's of […] for urate and 4050 M^−1cm^−1 for xanthine. […] For each compound, at least four different concentrations were tested in duplicate.

Experiment [2] is described as follows: Catalase activity, conversion of H2O2 to oxygen, polarographic oxygen electrode (Example 2). In kind it is biochemical. The conditions noted are these: relative to C7 (C7 = 100). As for the experimental part: Catalase activity was assayed by monitoring the conversion of H2O2 to oxygen using a Clark-type polarographic oxygen electrode. The apparatus consisted of a Mini Clark Style electrode, a 600 μl Oxygen Uptake Chamber, and a Chemical Microsensor system, all obtained from Diamond General Corporation (Ann Arbor, Mich.). The electrode was calibrated by immersion in nitrogen- or air-equilibrated buffers using a Dual Chamber Calibration Cell (Diamond General,. Corp.). Catalase reaction mixtures consisted of 50 mM sodium phosphate, pH 8.1, 0.9% sodium chloride, and salen manganese complex and H2O2 at the indicated concentrations. The temperature of the water-jacketed reaction chamber, as well as the calibration buffers, was maintained at 25±0.1° C. Data were collected at 1 sec intervals and stored-on a MacIntosh II computer using data acquisition hardware and software by Strawberry Tree, Inc. (Sunnyvale, Calif.). Dissolved oxygen concentrations were calculated as described previously (Del Rio et al. (1977) Anal. Biochem. 80: 409) based on a value of 2.5×10^−4 M oxygen for air-saturated buffer at 25° C. Linearity of the dissolved oxygen measurements within the experimental range was continued by determining the amount of oxygen generated from known quantities of H2O2 during exhaustive treatment with bovine liver catalase. Stock solutions of H2O2 were prepared by diluting a commercial 30% H2O2 solution in water and the H2O2 concentrations in these stocks were determined by absorbance at 240 nm, using a molar extinction coefficient of 44 (Stadtman, E R. et al. (1990) Proc. Natl. Acad. Sci. USA 87: 384). […] In the absence of salen manganese complex, H2O2 alone typically produced an early, relatively slow increase in signal. The slope of this increased signal was not proportional to H2O2 concentration (for example in one experiment, 1 and 10 Mm H2O2 yielded apparent rates of 12 and 14 μM oxygen per min, respectively) and may be due to an electrode artifact. […] Where presented, initial rates were calculated by determining the slope of the linear portion of time dependent plots of oxygen generation, usually comprising the first five seconds of the reaction. Unless otherwise indicated, these were corrected by subtracting the rate obtained with H2O2 alone. Where presented, endpoint oxygen generated was calculated from time-dependent plots, such as those shown in FIG. 14, as the difference between the baseline oxygen concentration immediately prior to substrate addition and the maximal oxygen concentration achieved during the course of the reaction. All reactions subjected to these calculations were run for a sufficient time to ensure that oxygen generation had ceased.
(§1) Catalase and peroxidase activities were assayed as described in Example 2. Catalase assays contained 10 μM salen-manganese complex and 10 mM hydrogen peroxide. Peroxidase assays contained 10 μM salen-manganese complex and 0.2 mM hydrogen peroxide. Glucose-glucose oxidase toxicity assays were performed using human dermal fibroblasts as described in Example 2.

Experiment [3] is described as follows: Peroxidase activity, H2O2-dependent oxidation of ABTS (Example 2). In kind it is biochemical. Conditions: relative to C7 (C7 = 100). As to the method:
Peroxidase activity was assayed by monitoring the hydrogen peroxide-dependent oxidation of 2,2′-azino-bis(3-ethylbenzthiazoline-6) sulfonic acid (ABTS) spectrophotometrically. Standard assay mixtures consisted of 50 mM sodium phosphate, pH 8.1, 0.9% sodium chloride, 0.5 mM ABTS, and H2O2 and salen manganese complex as indicated. Where indicated, 50 mM sodium phosphate buffers of pH 6.0 or pH 7.1 were substituted. Assays were conducted at 27±0.2° C. ABTS oxidation was monitored at 740 or 500 nm to eliminate interference by the salen manganese complexes, many of which absorb in the vicinity of the λmax of oxidized ABTS, and to avoid absorbance values that exceeded the linear range of the spectrophotometer. The amount of oxidized ABTS was estimated using an Δε740 of 20,300 M^−1cm^−1 or an Δε500 of 3400 M^−1cm^−1 calculated based upon the published molar extinction coefficient oat 405 nm (36,800).
as §1

In experiment [4] the test system is isolated iron-overloaded rat hearts. Kind of experiment: Isolated iron-overloaded rat hearts submitted to ischemia and reperfusion (function and electron microscopy). As for the experimental part:
Rats received an intramuscular injection of 0.25 ml of an iron-dextran solution (100 g iron hydroxide, 99 g dextran, water up to 1 l) every third day during a 5-week period to achieve a significant iron overload in cardiac tissue. At the end of this treatment, rats were anesthetized with sodium pentobarbital (40 mg/kg) and heparin (1,000 IU/kg) was administered via a femoral vein. Hearts were then removed and rapidly perfused through the aorta according to the technique described by Langendorff [Langendorff, O., Pflügers Arch. 61: 291, 1895] at a constant flow rate of 11 ml/minute. The perfusion fluid was a modified Krebs-Henseleit buffer containing (in mmol/l): NaCl 118, KCl 5.9, NaHCO3 25, MgCl2 1.2, NaH2PO4 0.6, CaCl2 2.4, Glucose […]. pH was maintained at 7.4±0.05 when the perfusion medium was saturated with O2—CO2 (95%-5%) at 37° C. The perfusion apparatus was fully thermostated such that the temperature of the perfusion medium was 37.0±0.5° C. when it reached the aorta. An ultra-thin balloon was inserted in the left ventricle immediately after the initiation of aortic perfusion and was inflated so as to obtain an end-diastolic pressure of 5 mm Hg. A 15 minute stabilization period was initiated immediately following balloon placement. At the end of this period, systolic and diastolic ventricular pressures and heart beat rate (HR) were recorded through a pressure transducer linked to the ventricular balloon. Left Ventricular Developed Pressure (LVDP) was calculated by the difference between systolic and diastolic pressure and the product HR×LVDP was taken as an index of oxygen consumption. Hearts were then subjected to a 15 minute total global normothermic ischemia, followed by 15 minutes of reperfusion with the perfusion medium used initially. During this 15 minute reperfusion, heart rate, and diastolic and systolic pressures were monitored. Early ventricular fibrillations were analyzed 1 min. after the start of the reperfusion.
Three experimental groups were studied.
After the 15 minute reperfusion, 3 hearts in each group were prepared for electron microscopy by perfusion with 2.5% glutaraldehyde. Ultra-thin slices (500-600 Å thickness) were examined.
Mitochondria were classified into Type A (normal), Type B (swollen, unbroken), and Type C (ruptured membranes). Sarcomeres were classified into Type A (normal) and Type B (contacted and/or necrosis). The results are expressed as percentages.

[5] abbreviates: 1 minute after reperfusion, DMTU 10 mM, C7 50 μM.
The mark [6] stands for this setting: 15 minutes after reperfusion, DMTU 10 mM, C7 50 μM.
Setting [7] is: Before ischemia, DMTU 10 mM, C7 50 μM.
Setting [8] is: electron microscopy after 15 minute reperfusion.

Marks after values point to notes of the source that are not given here.

`COc1cc(OC)c2c(c1)[O][Mn]([Cl])[O]c1cc(OC)cc(OC)c1C=NCCN=C2` [Compound C39] gave an SOD in experiment [1] of 27.
For `[Cl][Mn]1[O]c2ccccc2C=Nc2cccnc2N=Cc2ccccc2[O]1` [Compound C44], in experiment [2], the Catalase endpt. came out at 493 and the Catalase rate is reported as 272. Also, the Peroxidase in experiment [3] was 48.
For `COc1cccc2c1[O][Mn]([Cl])[O]c1c(cccc1OC)C=Nc1ncccc1N=C2` [Compound C46] the same measures were 830, 465 and 20.
For `CC(=O)[O][Mn]1[O]c2ccccc2C=Nc2ccccc2N=Cc2ccccc2[O]1` [Compound C47] the same measures were 398, 343 and 101.
In experiment [2], `COc1cccc2c1[O][Mn]([O]C(C)=O)[O]c1c(cccc1OC)C=NC1CCCCC1N=C2` (stereo not drawn) [Compound C50] gave a Catalase endpt. of 287 and a Catalase rate of 174. For the same molecule, the Peroxidase in experiment [3] was 170.
For `CC(=O)[O][Mn]1[O]c2ccccc2C=NCC(C)(C)CN=Cc2ccccc2[O]1` [Compound C52] the same measures were 33, 73 and 0.
`[Cl][Fe]1[O]c2ccccc2C=NCCN=Cc2ccccc2[O]1` [Compound C57]: in experiment [1], the SOD came out at 33.
The molecule `C1=NCCN=Cc2ccccc2[O][Ni][O]c2ccccc21` [Compound C59] displayed a Peroxidase in experiment [3] of 0.
In turn, `COc1cc(Br)c2c(c1)C=NCCN=Cc1cc(OC)cc(Br)c1[O][Mn]([O]C(C)=O)[O]2` [Compound C69] displayed a Peroxidase in experiment [3] of 167.
For the molecule `CC(=O)[O][Mn]1[O]c2c(F)cccc2C=Nc2cccnc2N=Cc2cccc(F)c2[O]1` [Compound C75], in experiment [3], the Peroxidase was 0.
In experiment [2], `COc1cc(Br)c2c(c1)C=Nc1ccccc1N=Cc1cc(OC)cc(Br)c1[O][Mn]([O]C(C)=O)[O]2` [Compound C76] displayed a Catalase endpt. of 159 and a Catalase rate of 427. The molecule further gave a Peroxidase in experiment [3] of 23.
Molecule `CC(=O)[O][Mn]1[O]c2ccc(Cl)cc2C=Nc2cccnc2N=Cc2cc(Cl)ccc2[O]1` [Compound C77] showed a Peroxidase in experiment [3] of 0.
In experiment [2], `CC(=O)[O][Mn]1[O]c2ccc3ccccc3c2C=Nc2ccccc2N=Cc2c(ccc3ccccc23)[O]1` [Compound C79] registered a Catalase endpt. of 22 and a Catalase rate of 42. In experiment [3], this molecule gave a Peroxidase of 0.
For `COc1cccc2c1[O][Mn]([O]C(C)=O)[O]c1c(cccc1OC)C=NCCCN=C2` [Compound C80] the same measures were 24, 34 and 0.
For `COc1cccc2c1[O][Mn]([Cl])[O]c1c(cccc1OC)C=Nc1ccccc1N=C2` [Compound C81] the same measures were 870, 493 and 83.
In the same order, the values of `CC(=O)[O][Mn]1[O]c2c3cccc2OCCOCCOCCOc2cccc(c2[O]1)C=Nc1ccccc1N=C3` [Compound C82] are 756, 345 and 59.
In experiment [2], `CC(=O)[O][Mn]1[O]c2ccccc2CNCCNCc2ccccc2[O]1` [Compound C83] yielded a Catalase endpt. of 52 and a Catalase rate of 42. In addition, in experiment [3], the Peroxidase was 74.
For `[Cl][Mn]1[O]c2ccccc2CNCCNCc2ccccc2[O]1` [Compound C84] the same measures were 51, 31 and 77.
As for `COc1ccc2c(c1)C(C)=NCCN=C(C)c1cc(OC)ccc1[O][Mn]([O]C(C)=O)[O]2` [Compound C87], the Peroxidase in experiment [3] was 20.
`COc1ccc2c(c1)[O][Mn]([O]C(C)=O)[O]c1cc(OC)ccc1C(C)=NCCN=C2C` [Compound C88] displayed a Peroxidase in experiment [3] of 0.
The same measure, in the same setting: to `COc1ccc2c(c1)[O][Mn]([O]C(C)=O)[O]c1cc(OC)ccc1C(c1ccccc1)=NCCN=C2c1ccccc1` [Compound C89] belongs 0.
With `CNC(=S)NC` [DMTU, dimethylthiourea], in experiment [4] (setting [5]), the DP amounted to 37.2 ± 10.0 mm Hg, the HR amounted to 91 ± 10 beats/min, the “HR × LVDP” value is reported as 3.5 ± 1.2 ×10.3 and the SP was 62 ± 9 mm Hg. Also, the “VF, number of hearts exhibiting episodes of ventricular fibrillation” value in experiment [4] (setting [5]) is 3/8. In experiment [4] (setting [6]), the DP turned out to be 27.8 ± 9.4 mm Hg, the HR is reported as 226 ± 18 beats/min, the “HR × LVDP” value is 9.4 ± 2.0 ×10.3 and the SP came to 58 ± 6 mm Hg. Further, in experiment [4] (setting [7]), the DP came out at 4.7 ± 0.3 mm Hg, the HR is on record as 280 ± 10 beats/min, the “HR × LVDP” value is 24.1 ± 0.6 ×10.3 and the SP worked out at 97 ± 4 mm Hg. In experiment [4] (setting [8]), the “Mitochondria Type A (normal)” value is reported as 14.3* %; the “Mitochondria Type B (swollen, unbroken)” value was 19.5%; the “Mitochondria Type C (ruptured membranes)” value was determined as 66.2%; the “Sarcomeres Type A (normal)” value was 13.7+ %. In addition, in experiment [4] (setting [8]), the “Sarcomeres Type B (contacted and/or necrosis)” value is listed as 86.3+ %.
